Where “and” joins values, the source holds several entries; their conditions need not be identical. Equal entries are not always repeated. Where two headings read alike, the source gives them in different places.
What was measured:
[1] = biological target: T. b. brucei trypanothione synthetase (TbTryS) (Trypanosoma brucei brucei, UniProt Q8IEX1); assay: biochemical; conditions: end-point BIOMOL GREEN assay; competes with ATP; read-out: apparent Ki ADP, His-tagged TbTryS 427 (MITat1.4)
[2] = biological target: L. infantum trypanothione synthetase (LiTryS) (Leishmania infantum, UniProt A4I2Z3); assay: biochemical; format: biochemical; conditions: end-point BIOMOL GREEN assay; competes with ATP; read-out: apparent Ki ADP, LiTryS JPCM5 (His-tagged)
Sequence of L. infantum trypanothione synthetase (LiTryS) (A4I2Z3 entry or part of it): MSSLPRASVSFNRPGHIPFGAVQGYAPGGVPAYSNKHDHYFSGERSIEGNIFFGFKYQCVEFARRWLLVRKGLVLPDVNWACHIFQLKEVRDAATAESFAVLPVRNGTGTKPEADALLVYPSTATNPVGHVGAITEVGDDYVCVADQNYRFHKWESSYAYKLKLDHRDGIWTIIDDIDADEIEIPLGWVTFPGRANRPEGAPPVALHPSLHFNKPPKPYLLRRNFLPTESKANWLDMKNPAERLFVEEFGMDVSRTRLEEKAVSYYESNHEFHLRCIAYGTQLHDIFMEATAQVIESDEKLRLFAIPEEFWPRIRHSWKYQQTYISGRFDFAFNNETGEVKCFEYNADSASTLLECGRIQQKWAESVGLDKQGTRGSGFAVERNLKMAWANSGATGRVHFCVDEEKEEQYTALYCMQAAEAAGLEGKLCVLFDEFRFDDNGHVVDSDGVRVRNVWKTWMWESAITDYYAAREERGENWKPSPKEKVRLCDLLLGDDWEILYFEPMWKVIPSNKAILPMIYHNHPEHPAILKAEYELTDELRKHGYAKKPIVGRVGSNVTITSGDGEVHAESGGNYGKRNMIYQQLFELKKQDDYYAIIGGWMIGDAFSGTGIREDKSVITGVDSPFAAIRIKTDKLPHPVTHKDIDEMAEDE

CfGspS = conditions: ref [64]; cited from earlier work
[3] = biological target: T. cruzi trypanothione synthetase (TcTryS) (Trypanosoma cruzi, UniProt Q9GT49); conditions: read-out: apparent Ki ADP, TcTryS strain Tulahuen 0 (His-tagged); end-point BIOMOL GREEN assay; competes with ATP
Sequence of T. cruzi trypanothione synthetase (TcTryS) (Q9GT49 whole entry): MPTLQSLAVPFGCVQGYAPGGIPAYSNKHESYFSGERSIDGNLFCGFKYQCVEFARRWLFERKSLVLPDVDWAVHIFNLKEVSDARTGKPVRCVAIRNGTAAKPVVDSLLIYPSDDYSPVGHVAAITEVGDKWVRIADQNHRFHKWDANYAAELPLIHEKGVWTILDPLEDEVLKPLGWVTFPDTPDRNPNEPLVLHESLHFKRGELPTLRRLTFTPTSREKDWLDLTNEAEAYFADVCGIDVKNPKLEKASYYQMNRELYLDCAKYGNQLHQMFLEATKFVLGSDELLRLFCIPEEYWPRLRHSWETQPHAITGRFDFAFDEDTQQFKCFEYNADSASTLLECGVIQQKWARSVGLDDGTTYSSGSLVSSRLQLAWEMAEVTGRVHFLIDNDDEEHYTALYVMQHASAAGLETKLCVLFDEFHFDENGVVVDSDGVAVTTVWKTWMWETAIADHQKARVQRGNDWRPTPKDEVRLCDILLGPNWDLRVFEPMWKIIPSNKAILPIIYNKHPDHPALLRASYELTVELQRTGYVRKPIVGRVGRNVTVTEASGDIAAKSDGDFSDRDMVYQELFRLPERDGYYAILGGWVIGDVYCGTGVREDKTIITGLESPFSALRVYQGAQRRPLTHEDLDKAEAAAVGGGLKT

[4] = biological target: TcTryS (Trypanosoma cruzi trypanothione synthetase) (Trypanosoma cruzi, UniProt Q9GT49); assay: biochemical; format: biochemical; conditions: read-out: % TcTryS inhibition ± 2σn-1
Sequence of TcTryS (Trypanosoma cruzi trypanothione synthetase) (Q9GT49 whole entry): as above

LiTryS = tested on: LiTryS; parameters: method as in PMID 24853758; conditions: ref [20]; cited from earlier work
[5] = tested on: Leishmania infantum promastigotes; parameters: method as in PMID 24853758; conditions: ref [20], read-out: L. infantum EC50; cited from earlier work
[6] = biological target: LiTryS (Leishmania infantum trypanothione synthetase) (Leishmania infantum, UniProt A4I2Z3); assay: biochemical; format: biochemical
Sequence of LiTryS (Leishmania infantum trypanothione synthetase) (A4I2Z3 1-652): as the sequence (A4I2Z3 entry or part of it) above

[7] = biological target: TbTryS (Trypanosoma brucei trypanothione synthetase) (Trypanosoma brucei brucei, UniProt Q8IEX1); assay: biochemical
Sequence of TbTryS (Trypanosoma brucei trypanothione synthetase) (Q8IEX1 1-627): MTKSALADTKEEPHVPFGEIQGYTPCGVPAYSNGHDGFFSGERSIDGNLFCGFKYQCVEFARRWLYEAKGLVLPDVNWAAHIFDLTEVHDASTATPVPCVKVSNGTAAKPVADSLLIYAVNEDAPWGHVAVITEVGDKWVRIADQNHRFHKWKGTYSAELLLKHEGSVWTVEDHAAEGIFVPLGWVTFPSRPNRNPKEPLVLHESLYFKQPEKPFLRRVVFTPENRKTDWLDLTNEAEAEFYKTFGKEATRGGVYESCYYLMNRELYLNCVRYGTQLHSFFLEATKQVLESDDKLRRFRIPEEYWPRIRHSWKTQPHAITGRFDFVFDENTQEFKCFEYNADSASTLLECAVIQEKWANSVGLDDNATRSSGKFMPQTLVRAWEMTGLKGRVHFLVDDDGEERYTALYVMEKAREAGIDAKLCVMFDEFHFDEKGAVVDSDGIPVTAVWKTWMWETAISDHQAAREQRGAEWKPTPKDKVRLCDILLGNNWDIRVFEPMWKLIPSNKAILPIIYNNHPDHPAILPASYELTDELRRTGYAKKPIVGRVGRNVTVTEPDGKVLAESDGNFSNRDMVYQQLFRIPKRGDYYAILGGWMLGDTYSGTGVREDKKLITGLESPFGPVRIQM

[8] = tested on: Leishmania infantum promastigotes; assay: Proliferation/cytotoxicity assay, L. infantum promastigotes; format: cell-based; conditions: 24 h, promastigotes
Procedure: All assays were performed in duplicates or triplicates.
Leishmania infantum promastigotes were cultured at 28 °C in RPMI 1640 Glutamax supplemented with 10% (v/v) FCS, 10 U ml^-1 penicillin, 10 µg ml^-1 streptomycin and 25 mM HEPES sodium salt pH 7.4. […] Twenty four hours later the number of living parasites was estimated by cell counting under the light microscope using a Neubauer chamber and viability calculated as percentage relative to cultures incubated with the vehicle alone.

[9] = tested on: L. infantum promastigotes; assay: Analysis of intracellular thiols; format: cell-based, Leishmania infantum
Procedure: The method is a modified version of that described in [62]. Briefly, L. infantum promastigotes or bloodstream T. b. brucei (WT and RNAi-TryS cell lines) treated or not with compounds (MOL2008 or EAP1-47, respectively) for 24 h were harvested by centrifugation (2000g, 10 min at 4°C), washed twice with PBS and resuspended at a density of 10^8 cells/0.1 mL of 40 mM Hepes pH 8.0 and 2 mM mono-bromobimane in methanol. After incubation at 70°C for 3 minutes, the samples were cooled on ice, then added of 100 μL 4 M methanesulfonic acid (adjusted to pH 1.5 with LiOH) and incubated overnight at 4°C. The supernatant containing the derivatized low molecular mass thiols was centrifuged at 13000g 40 min at 0°C.

TryS from C. fasciculata = tested on: TryS from C. fasciculata; parameters: method as in earlier work; conditions: ref [10]; cited from earlier work
[10] = tested on: bloodstream Trypanosoma brucei brucei; assay: Proliferation/cytotoxicity assay, infective T. b. brucei; format: cell-based; conditions: 24 h, read-out: T. b. Brucei EC50
[11] = n = 4, read-out: LiTryS IC50, representative dose-response plot

Sequence of T. b. brucei trypanothione synthetase (TbTryS) (Q8IEX1 entry or part of it): as the sequence (Q8IEX1 1-627) above

| SMILES | Ki [1] [µM] | Ki [2] [µM] | Ki (CfGspS) [µM] | Ki [3] [µM] | inhibition at 30 µM [4] [%] | IC50 (LiTryS) [µM] | EC50 [5] [µM] | slope plot, LiTryS, representative dose-response plot [6] | IC50 [6, 11] [µM] | IC50 ([6]; read-out: LiTryS IC50) [µM] | IC50 [7] | inhibition at 75 µM [7] [%] | EC50 ([8]; Leishmania infantum) [µM] | EC50 [8] [µM] | decrease of T(SH)2 content [9] [%] | IC50 (TryS from C. fasciculata) [µM] | EC50 [10] [µM] | inhibition at 30 µM ([7]; read-out: % TbTryS inhibition ± 2σn-1) [%] |
| --- | --- | --- | --- | --- | --- | --- | --- | --- | --- | --- | --- | --- | --- | --- | --- | --- | --- | --- |
| Nc1ncnc2c1ncn2[C@@H]1O[C@H](COP(=O)(O)OP(=O)(O)O)[C@@H](O)[C@H]1O [ADP] | 40 ± 5 | 90 ± 8 | 80 | 60 ± 6 |  |  |  |  |  |  |  |  |  |  |  |  |  |  |
| CNCCNC(=O)CN1C(=O)Cc2c([nH]c3cc(C(F)(F)F)ccc23)-c2ccccc21 [FS-554] |  |  |  |  | ~50 | 0.35 | 112.3 ± 1.1 | 0.37 ± 0.03 | 0.32 ± 0.73 | 0.35 | ~75 µM | ~50 |  |  |  |  |  |  |
| CNCCNC(=O)CN1C(=O)Cc2c([nH]c3ccc(Br)cc23)-c2ccc(Cl)cc21 [MOL2008] |  |  |  |  | ~50 |  |  | 0.38 ± 0.03 | 0.14 ± 0.03 | < 1 | 30 µM and ~30 µM and ≤ 30 µM |  | 12 | 12.6 ± 1.6 | ≥ 90 | 0.03 | 4.3 ± 0.7 | ~50 |

From paper PMC4829233, “Identification of Novel Chemical Scaffolds Inhibiting Trypanothione Synthetase from Pathogenic Trypanosomatids” (PLoS Neglected Tropical Diseases, 2016)
